The results in this text go back to patent publication US9745266B2 (THE REGENTS OF THE UNIVERSITY OF COLORADO, A BODY CORPORATE, priority 2013, dated 2017).

Converted amounts (≈) assume the structure as drawn. Like-named read-outs stand apart in the source and are kept apart here.

Series [1] relates to MRSA ATCC BAA-44. Briefly: Minimum resensitizing concentration (MRC), modified broth microdilution. Format: cell-based, S. aureus. Conditions: MRSA ATCC BAA-44. On the procedure: (§1) For these activity tests, AMOXICILLIN® was used in combination with clavulanic acid (a.k.a., AUGMENTIN®), CEFAZOLIN®, and MEROPENEM® (an ultra-broad-spectrum carbapenem). […] To assess activity of each analog as a resistance-modifying agent (RMA), a modified broth microdilution assay was used. Briefly, this involves incubating MRSA with 2-fold serial dilutions of a compound in the presence of each individual antibiotic at its Clinical Laboratory Standards Institutes (CLSI)-defined sensitive concentration. For AMOXICILLIN®/clavulanic acid, this concentration is 4/2 μg/ml (8-fold potentiation), for CEFAZOLIN®, 8 μg/ml (16-fold potentiation) and for MEROPENEM®, 4 μg/ml (4-fold potentiation). Following overnight incubation, plates were examined for bacterial growth, or lack thereof. Compounds were tested at concentrations ranging from 0.5-32 μg/ml. […] The half growth inhibitory concentration (GI50) of each analog was determined by fitting the data using KaleidaGraph (v4.1.1, Synergy Software).
(§2) A modified broth microdilution assay was employed by incubating MRSA (ATCC: BAA-44) with Of1 in 2-fold series dilution in the presence of individual antibiotics at the highest sensitive concentration at 37° C. overnight. […] The MRC values were also determined for another three MRSA strains. […] Furthermore, the mammalian toxicity of Of1 was evaluated using human liver hepatocellular carcinoma HepG2 cell line in CellTiter Glo™ mammalian viability assay (Promega).
(§3) MRC screens were performed as follows: antibiotic MIC values where S. aureus is considered susceptible were determined from the CLSI handbook supplement. Analogs of Of1 were diluted to 5 mg/ml in DMSO. Antibiotic was prepared at twice the intended final concentration in Mueller Hinton Broth (MHB). For amoxicillin/clavulanic acid, the initial concentration was 8/4 μg/ml, for meropenem 8 μg/ml and for cefazolin 16 μg/ml. 50 μl of the antibiotic containing media was added to each well of 96 well plates and 100 μl was added to the top row. 1.28 μl of 5 mg/ml alkaloid solution was added to the top row of each plate to afford a concentration of 64 μg/ml in the top row of each plate and two fold serial dilutions were performed down the columns. Once the plates were prepared, a day culture of MRSA was diluted to OD600 0.002 and 50 μl was added to each well. The final concentration of MRSA was OD600 0.001, the final concentration of amoxicillin/clavulanic acid was 4/2 μg/ml, the final concentration of meropenem was 4 μg/ml the final concentration of cefazolin was 8 μg/ml, and the highest concentration of Of1 analog tested was 32 μg/ml. Plates were incubated overnight at 37° C. with shaking. The MRC value was determined as the concentration of Of1 analog in the presence of antibiotic at which there was no observable overnight growth.

The subject of series [2] is MRSA ATCC 33592. The series is described as above. Conditions: MRSA ATCC 33592; meropenem at 4 μg/ml. Format: cell-based, S. aureus. On the procedure: as §1, §2, §3
For a further series, the system named is HeLa cells. Kind of series: Mammalian cytotoxicity, CellTiter-Glo viability assay. Format: cell-based, human. As to conditions: 24 hours. How it is done:
To evaluate the cytotoxicity of Of1 in mammalian cells, a cell viability assay was carried out using CellTiter-Glo luminescent cell viability assay kit (Promega). Human cervixcal adenocarcinoma HeLa cells were seeded on white, cell-culture treated 96-well plates (Corning: 3917) with Dulbecco's modified Eagle's medium (DMEM) supplemented with 10% fetal calf serum (FCS), 1% penicillin/streptomycin, at the densities of 20,000 cells/well. The medium volume for each well was 100 μL. Cells were incubated at 37° C. in 5% CO2/95% air for 16 hours. The medium was removed from each well and replaced with 99 μL of warmed fresh medium. To each well, 1 μL of Of1 analog was added in DMSO to final concentrations of 0.5-32 μg/mL. Each series was performed in triplicate. After incubation at 37° C. for another 24 hours, the plates were equilibrated to room temperature for 30 minutes. 100 μL of CellTiter-Glo reagent (Promega) was added to each well and mixed for 2 minutes on an orbital shaker. The plate was incubated at room temperature for another 10 minutes to stabilize luminescent signal. The luminescence of each sample was recorded in an Envision Multilabel Plate Reader (Perkin Elmer).
Background: Cellular ATP, detected with luciferase, serves as a proxy for viable cell number.

Series [3] deals with MRSA ATCC BAA-44. Kind of series: MIC, CLSI broth microdilution. Conditions: MRSA ATCC BAA-44, compound alone. Format: cell-based, S. aureus. (In general: In broth dilution the organism is exposed to a series of concentrations in liquid medium.)
Series [4] deals with MRSA ATCC BAA-44. Kind of series: MIC in the presence of 20 μM Of1 / alkaloid. It counts as cell-based, S. aureus. As to conditions: MRSA ATCC BAA-44; for fold of potentiation: MIC / MIC (+20 μM Of1); for MIC (+Of1): in the presence of 20 μM Of1. How it is done:
Indoline alkaloid compounds were then screened for the ability to potentiate the activity of methicillin against MRSA. A multi-drug resistant MRSA strain (ATCC: BAA-44) was selected for the initial screening. […] To each well, 20 μM of each individual indoline alkaloid was added and the plates were incubated at 37° C. for 16 hrs.
The MRSA strain ATCC BAA-44 and the methicillin-sensitive S. aureus (MSSA) strain ATCC 25923 were used to determine the MIC values of various antimicrobial compounds in the presence of 20 μM Of1. The experiment was conducted similarly to the CLSI MIC determination described previously; however, MHB was supplemented with 40 μM Of1 prior to set up and inoculation. The final concentration of Of1 after inoculation with BAA-44 was 20 μM.

The subject of series [5] is MRSA ATCC 33592. Briefly: MIC, broth microdilution. Format: cell-based, S. aureus. As to conditions: Staphylococcus aureus. On the procedure: as §1, with “Activities listed in the table show the ability of the compounds of the invention to resensitize MRSA to a collection of β-lactam antibiotics. For these” for “For these”, “Synergy Software). Compounds 1a-1 are synthesized as shown in Scheme 1 below.” for “Synergy Software).”
The minimal inhibitory concentrations (MICs) of active Of1 analogs were determined by the broth microdilution method detailed in the Clinical and Laboratory Standards Institute handbook. […]

The mark [6] stands for this setting: Staphylococcus aureus, read-out: MIC.

In the case of “2-(6-Bromo-4-methylidene-2,3,4,4a,9,9a-hexahydro-1H-carbazol-4a-yl)-N-(4-chlorobenzenesulfonyl)-S-(4-chlorophenyl)ethane-1-sulfonamido [Cpd 1h]”, the MRC amox/clav in the series with MRSA ATCC BAA-44 [1] (amoxicillin/clavulanic acid at 4/2 μg/ml) was greater than 32 µg/mL. Moreover, the MRC cefazolin in the series on MRSA ATCC BAA-44 [1] (cefazolin at 8 μg/ml) is greater than 32 µg/mL. The MRC methicillin in the series with MRSA ATCC BAA-44 [1] (in presence of methicillin) is greater than 32 µg/mL. Also, the MRC meropenem in the series on MRSA ATCC 33592 [2] is greater than 32 µg/mL.
Take `C=C1CCC[C@@H]2Nc3c(F)cc(Br)cc3[C@]12CCN` (stereo in doubt) [Cpd 11b, 2-(6-Bromo-8-fluoro-4-methylidene-2,3,4,4a,9,9a-hexahydro-1H-carbazol-4a-yl)ethan-1-amine]: the GI50 (commonly the concentration that inhibits growth by half) in the series with HeLa cells came out at 16.2 µg/mL (≈ 49.8 µM).
Take `CC1=C(C(=O)O)N2C(=O)[C@@H](NC(=O)[C@H](N)c3ccccc3)[C@H]2SC1` [cephalexin]: the MIC (as a rule, the smallest concentration in the dilution series that meets the test's criterion for growth inhibition) with MRSA ATCC BAA-44 [3] (setting [6]) worked out at 256 µg/mL (≈ 737 µM). Besides, in the series on MRSA ATCC BAA-44 [4], the fold of potentiation came out at 16 and the “MIC (+Of1)” value stood at 16 µg/mL.
On the same counts, the results for `C[C@@H](O)[C@H]1C(=O)N2C(C(=O)O)=C(SCCN=CN)C[C@H]12` [imipenem] are 0.5 µg/mL (≈ 1.67 µM), 8 and “.0625 µg/mL”.
With `C[C@@H](O)[C@H]1C(=O)N2C(C(=O)O)=C(S[C@@H]3CN[C@H](C(=O)N(C)C)C3)[C@H](C)[C@H]12` [meropenem], the MIC came to 4 µg/mL (≈ 10.4 µM) in the series on MRSA ATCC BAA-44 [3] (setting [6]) and 16 µg/mL in the series on MRSA ATCC 33592 [5]. Besides, in the series on MRSA ATCC BAA-44 [4], the fold of potentiation is given as 16. Further, in the series with MRSA ATCC BAA-44 [4], the “MIC (+Of1)” value amounted to 0.25 µg/mL.
Regarding `COc1cccc(OC)c1C(=O)N[C@@H]1C(=O)N2[C@@H]1SC(C)(C)[C@@H]2C(=O)O` [methicillin], the MIC in the series on MRSA ATCC BAA-44 [3] (setting [6]) worked out at 128 µg/mL (≈ 336 µM). In the series on MRSA ATCC BAA-44 [4], the fold of potentiation was determined as 16 and the “MIC (+Of1)” value was determined as 8 µg/mL.
With `Cc1onc(-c2ccccc2)c1C(=O)N[C@@H]1C(=O)N2[C@@H]1SC(C)(C)[C@@H]2C(=O)O` [oxacillin], the MIC in the series on MRSA ATCC BAA-44 [3] (setting [6]) came to 64 µg/mL (≈ 159 µM). For the same molecule, in the series on MRSA ATCC BAA-44 [4], the “MIC (+Of1)” value came out at 0.5 µg/mL.
As for `CN(C)[C@@H]1C(O)=C(C(N)=O)C(=O)[C@@]2(O)C(O)=C3C(=O)c4c(O)cccc4[C@@](C)(O)[C@H]3C[C@@H]12` [tetracycline], the MIC in the series with MRSA ATCC BAA-44 [3] (setting [6]) came out at 64 µg/mL (≈ 144 µM). For the same molecule, in the series with MRSA ATCC BAA-44 [4], the fold of potentiation is recorded as 1 and the “MIC (+Of1)” value is 64 µg/mL.
In the case of amoxicillin/clavulanate, the minimum inhibitory concentration (MIC) with MRSA ATCC BAA-44 [3] is on record as 32/16. In addition, in the series with MRSA ATCC BAA-44 [4], the fold of potentiation came out at 8 and the “MIC (+Of1)” value is reported as 4/2.
